Results on 22 molecules are retold here after US11065257B2, “Substituted pyrazoloazepin-4-ones and their use as phosphodiesterase inhibitors” (LEO Pharma A/S, priority 2016, dated 2021).

T1 sequence (Q08499 380-740): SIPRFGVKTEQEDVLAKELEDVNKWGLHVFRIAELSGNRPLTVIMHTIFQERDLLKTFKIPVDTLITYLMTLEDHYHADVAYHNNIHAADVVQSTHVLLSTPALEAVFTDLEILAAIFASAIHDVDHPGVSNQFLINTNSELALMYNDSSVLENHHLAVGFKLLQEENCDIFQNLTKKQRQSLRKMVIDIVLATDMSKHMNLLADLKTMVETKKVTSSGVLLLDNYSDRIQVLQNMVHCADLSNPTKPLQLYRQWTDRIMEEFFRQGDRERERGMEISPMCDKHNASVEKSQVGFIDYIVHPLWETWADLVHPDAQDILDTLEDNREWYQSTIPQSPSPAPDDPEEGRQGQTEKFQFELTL

The experiment concerns the target T1, human PDE4D catalytic domain (Homo sapiens, UniProt Q08499).
T1 construct: UniProt no; Q08499 [S380-L740]
The experiment is described as follows: PDE4 Assay. Format: biochemical. Particulars: human PDE4D catalytic domain (S380-L740), TR-FRET with FAM-cAMP; expressed as a range of IC50; read-out: PDE4 Potency Range. The protocol: The human PDE4D catalytic domain (UniProt no. Q08499 [S380-L740]) was incubated with a mixture of non-labelled cAMP (cyclic adenosine monophosphate) and fluorescein amidite (FAM) conjugated cAMP and titrated test or reference compound. Following brief incubation the enzymatic reaction was stopped by addition of binding buffer containing nanoparticles with immobilized trivalent metal ions capable of binding 1) AMP phospho groups and 2) terbium (Tb) donor fluorophores. Subsequent excitation of the Tb donor triggers time-resolved FRET to adjacent FAM acceptor molecules resulting in light emission. In the presence of a PDE4 inhibitor, AMP generation was reduced resulting in a lower fluorescence signal. The cAMP phosphodiester is not bound by the detection system.
The results were calculated as the molar concentrations resulting in 50% inhibition of the substrate cleavage compared to controls samples, and are expressed as a range of IC50 (nM).
Consider `CCc1nn(CCCOC(=O)c2ncccc2C)c2c1C(=O)NCC1(CCOCC1)C2` [Example 62, 3-(3-ethyl-4-oxo-spiro[6,8-dihydro-5H-pyrazolo[4,3-c]azepine-7,4′-tetrahydropyran]-1-yl)propyl 3-methylpyridine-2-carboxylate], for which the IC50 was > 500 nM.
Next, `CCc1nn(CCCOC(=O)c2cc(C)ccn2)c2c1C(=O)NCC1(CCOCC1)C2` [Example 63, 3-(3-ethyl-4-oxo-spiro[6,8-dihydro-5H-pyrazolo[4,3-c]azepine-7,4′-tetrahydropyran]-1-yl)propyl 4-methylpyridine-2-carboxylate]: > 500 nM; `CCc1nn(CCCOC(=O)c2cccc(C)n2)c2c1C(=O)NCC1(CCOCC1)C2` [Example 64, 3-(3-ethyl-4-oxo-spiro[6,8-dihydro-5H-pyrazolo[4,3-c]azepine-7,4′-tetrahydropyran]-1-yl)propyl 6-methylpyridine-2-carboxylate]: > 500 nM; `CCc1nn(CCCOC(=O)c2cccnc2C)c2c1C(=O)NCC1(CCOCC1)C2` [Example 65, 3-(3-ethyl-4-oxo-spiro[6,8-dihydro-5H-pyrazolo[4,3-c]azepine-7,4′-tetrahydropyran]-1-yl)propyl 2-methylpyridine-3-carboxylate]: 100 to 500 nM.
On to `CCc1nn(CCCOC(=O)c2ncc(C)cn2)c2c1C(=O)NCC1(CCOCC1)C2` [Example 66, 3-(3-ethyl-4-oxo-spiro[6,8-dihydro-5H-pyrazolo[4,3-c]azepine-7,4′-tetrahydropyran]-1-yl)propyl 5-methylpyrimidine-2-carboxylate], for which the IC50 was > 500 nM.
As for `CCc1nn(CCCOC(=O)c2ccnnc2C)c2c1C(=O)NCC1(CCOCC1)C2` [Example 67, 3-(3-ethyl-4-oxo-spiro[6,8-dihydro-5H-pyrazolo[4,3-c]azepine-7,4′-tetrahydropyran]-1-yl)propyl 3-methylpyridazine-4-carboxylate], the IC50 was > 500 nM.
`CCc1nn(CCCOC(=O)c2ccnc(C)n2)c2c1C(=O)NCC1(CCOCC1)C2` [Example 68, 3-(3-ethyl-4-oxo-spiro[6,8-dihydro-5H-pyrazolo[4,3-c]azepine-7,4′-tetrahydropyran]-1-yl)propyl 2-methylpyrimidine-4-carboxylate]: the IC50 was > 500 nM.
Regarding `CCc1nn(CCCOC(=O)c2nccc(C)n2)c2c1C(=O)NCC1(CCOCC1)C2` [Example 69, 3-(3-ethyl-4-oxo-spiro[6,8-dihydro-5H-pyrazolo[4,3-c]azepine-7,4′-tetrahydropyran]-1-yl)propyl 4-methylpyrimidine-2-carboxylate], the IC50 is > 500 nM.
Turning to `CCc1nn(CCCOC(=O)c2cnc(C)nc2)c2c1C(=O)NCC1(CCOCC1)C2` [Example 70, 3-(3-ethyl-4-oxo-spiro[6,8-dihydro-5H-pyrazolo[4,3-c]azepine-7,4′-tetrahydropyran]-1-yl)propyl 2-methylpyrimidine-5-carboxylate], the IC50 is 100 to 500 nM.
Regarding `CCc1nn(CCCOC(=O)c2cc(C)nn2C)c2c1C(=O)NCC1(CCOCC1)C2` [Example 71, 3-(3-ethyl-4-oxo-spiro[6,8-dihydro-5H-pyrazolo[4,3-c]azepine-7,4′-tetrahydropyran]-1-yl)propyl 2,5-dimethylpyrazole-3-carboxylate], the IC50 fell in the range of 100 to 500 nM.
As for `CCc1nn(CCCOC(=O)c2cc(C)n(C)n2)c2c1C(=O)NCC1(CCOCC1)C2` [Example 72, 3-(3-ethyl-4-oxo-spiro[6,8-dihydro-5H-pyrazolo[4,3-c]azepine-7,4′-tetrahydropyran]-1-yl)propyl 1,5-dimethylpyrazole-3-carboxylate], the IC50 is > 500 nM.
As for `CCc1nn(CCCOC(=O)c2cnc(C)n2C)c2c1C(=O)NCC1(CCOCC1)C2` [Example 73, 3-(3-ethyl-4-oxo-spiro[6,8-dihydro-5H-pyrazolo[4,3-c]azepine-7,4′-tetrahydropyran]-1-yl)propyl 2,3-dimethylimidazole-4-carboxylate], the figure is 100 to 500 nM.
Next, `CCc1nn(CCCOC(=O)c2noc(C)c2C)c2c1C(=O)NCC1(CCOCC1)C2` [Example 74, 3-(3-ethyl-4-oxo-spiro[6,8-dihydro-5H-pyrazolo[4,3-c]azepine-7,4′-tetrahydropyran]-1-yl)propyl 4,5-dimethylisoxazole-3-carboxylate]: 100 to 500 nM; `CCc1nn(CCCOC(=O)c2c(C)noc2C)c2c1C(=O)NCC1(CCOCC1)C2` [Example 75, 3-(3-ethyl-4-oxo-spiro[6,8-dihydro-5H-pyrazolo[4,3-c]azepine-7,4′-tetrahydropyran]-1-yl)propyl 3,5-dimethylisoxazole-4-carboxylate]: > 500 nM; `CCc1nn(CCCOC(=O)c2nc(C)oc2C)c2c1C(=O)NCC1(CCOCC1)C2` [Example 76, 3-(3-ethyl-4-oxo-spiro[6,8-dihydro-5H-pyrazolo[4,3-c]azepine-7,4′-tetrahydropyran]-1-yl)propyl 2,5-dimethyloxazole-4-carboxylate]: > 500 nM.
Take `CCc1nn(CCCOC(=O)C2CN(C(C)=O)C2)c2c1C(=O)NCC1(CCOCC1)C2` [Example 77, 3-(3-ethyl-4-oxo-spiro[6,8-dihydro-5H-pyrazolo[4,3-c]azepine-7,4′-tetrahydropyran]-1-yl)propyl 1-acetylazetidine-3-carboxylate]: the IC50 is > 500 nM.
As for `CCc1nn(CCCOC(=O)c2cc(C)ns2)c2c1C(=O)NCC1(CCOCC1)C2` [Example 78, 3-(3-ethyl-4-oxo-spiro[6,8-dihydro-5H-pyrazolo[4,3-c]azepine-7,4′-tetrahydropyran]-1-yl)propyl 3-methylisothiazole-5-carboxylate], the figure is 100 to 500 nM; as for `CCc1nn(CCCOC(=O)c2cnsc2C)c2c1C(=O)NCC1(CCOCC1)C2` [Example 79, 3-(3-ethyl-4-oxo-spiro[6,8-dihydro-5H-pyrazolo[4,3-c]azepine-7,4′-tetrahydropyran]-1-yl)propyl 5-methylisothiazole-4-carboxylate], 100 to 500 nM; as for `CCc1nn(CCCOC(=O)c2ncsc2C)c2c1C(=O)NCC1(CCOCC1)C2` [Example 80, 3-(3-ethyl-4-oxo-spiro[6,8-dihydro-5H-pyrazolo[4,3-c]azepine-7,4′-tetrahydropyran]-1-yl)propyl 5-methylthiazole-4-carboxylate], 100 to 500 nM.
As for `CCc1nn(CCCOC(=O)c2scnc2C)c2c1C(=O)NCC1(CCOCC1)C2` [Example 81, 3-(3-ethyl-4-oxo-spiro[6,8-dihydro-5H-pyrazolo[4,3-c]azepine-7,4′-tetrahydropyran]-1-yl)propyl 4-methylthiazole-5-carboxylate], the figure is 100 to 500 nM; as for `CCc1nn(CCCOC(=O)c2cnc(C)s2)c2c1C(=O)NCC1(CCOCC1)C2` [Example 82, 3-(3-ethyl-4-oxo-spiro[6,8-dihydro-5H-pyrazolo[4,3-c]azepine-7,4′-tetrahydropyran]-1-yl)propyl 2-methylthiazole-5-carboxylate], 100 to 500 nM.
For the molecule `CCc1nn(CCCOC(=O)c2snnc2C)c2c1C(=O)NCC1(CCOCC1)C2` [Example 83, 3-(3-ethyl-4-oxo-spiro[6,8-dihydro-5H-pyrazolo[4,3-c]azepine-7,4′-tetrahydropyran]-1-yl)propyl 4-methylthiadiazole-5-carboxylate], the IC50 is > 500 nM.
